Laboratory results: PubChem BioAssay AID1259407 (Chemical Carcinogenesis Research Information System (CCRIS), 2018)
Activity calls are given as the source filed them. No rule for the calls is given here.

Test system: CCRIS mutagenicity, Ames/micronucleus/aberration tests
Assay: CCRIS mutagenicity studies
[1] = Test System: AMES SALMONELLA TYPHIMURIUM, Strain/Indicator: TA98, Metabolic Activation: NONE, Method: PREINCUBATION
[2] = Test System: AMES SALMONELLA TYPHIMURIUM, Strain/Indicator: TA100, Metabolic Activation: NONE, Method: STANDARD PLATE
[3] = Test System: AMES SALMONELLA TYPHIMURIUM, Strain/Indicator: TA100, Metabolic Activation: RAT, LIVER, S-9, AROCLOR 1254, Method: STANDARD PLATE
[4] = Test System: AMES SALMONELLA TYPHIMURIUM, Strain/Indicator: TA100, Metabolic Activation: RAT, LIVER, S-9, AROCLOR 1254, Method: PREINCUBATION
[5] = Test System: AMES SALMONELLA TYPHIMURIUM, Strain/Indicator: TA100, Metabolic Activation: NONE, Method: PREINCUBATION
[6] = Test System: AMES SALMONELLA TYPHIMURIUM, Strain/Indicator: TA98, Metabolic Activation: NONE, Method: STANDARD PLATE

In the case of C[C@H](CCC(=O)O)[C@H]1CC[C@H]2[C@@H]3CC[C@@H]4C[C@H](O)CC[C@]4(C)[C@H]3C[C@H](O)[C@]12C, the mutagenic call [1] is reported as “inactive; negative”, the mutagenic call (Test System: AMES SALMONELLA TYPHIMURIUM, Strain/Indicator: TA98, Method: PREINCUBATION) is reported as “inactive; negative” and the mutagenic call [2] is reported as “inactive; negative”. For the same compound, the mutagenic call [3] was “inactive; negative”.

With COCc1ccc([N+]#N)cc1 the mutagenic call (Test System: AMES SALMONELLA TYPHIMURIUM, Strain/Indicator: TA102, Metabolic Activation: NONE, Method: STANDARD PLATE) was “active; positive” and the mutagenic call (Test System: CHINESE HAMSTER V-79, Strain/Indicator: V-79/6-THIOGUANINE, Metabolic Activation: NONE) was “active; positive”.

C1=COc2c(c3cc4ccccc4cc3c3ccccc23)C=C1 was tested, and the mutagenic call [4] was “active; positive”.

With O=[N+]([O-])c1ccccc1S(=O)(=O)O the mutagenic call [1] was “inactive; negative”, the mutagenic call (Test System: AMES SALMONELLA TYPHIMURIUM, Strain/Indicator: TA98, Metabolic Activation: RAT, LIVER, S-9, KANECHLOR 500, Method: PREINCUBATION) was “inactive; negative” and the mutagenic call [5] was “inactive; negative”. The mutagenic call (Test System: AMES SALMONELLA TYPHIMURIUM, Strain/Indicator: TA100, Metabolic Activation: RAT, LIVER, S-9, KANECHLOR 500, Method: PREINCUBATION) was “inactive; negative”.

Fc1c(F)c(F)c2ncccc2c1F was tested, and the mutagenic call (Test System: AMES SALMONELLA TYPHIMURIUM, Strain/Indicator: TA100, Metabolic Activation: RAT LIVER S-9, PHENOBARBITAL AND 5,6-BENZOFLAVONE, Method: PREINCUBATION) was “active; positive”.

For CC(=O)c1ccc(Cl)c(Cl)c1Cl, the mutagenic call (Test System: AMES SALMONELLA TYPHIMURIUM, Strain/Indicator: TA98, Metabolic Activation: HAMSTER, LIVER, S-9, AROCLOR 1254, Method: STANDARD PLATE) was “active; positive”, the mutagenic call [6] was “inactive; negative” and the mutagenic call (Test System: AMES SALMONELLA TYPHIMURIUM, Strain/Indicator: TA98, Metabolic Activation: RAT, LIVER, S-9, AROCLOR 1254, Method: STANDARD PLATE) was “inactive; negative”. The mutagenic call (Test System: AMES SALMONELLA TYPHIMURIUM, Strain/Indicator: TA100, Metabolic Activation: HAMSTER, LIVER, S-9, AROCLOR 1254, Method: STANDARD PLATE) was “active; positive”, the mutagenic call [2] was “inactive; negative” and the mutagenic call [3] was “active; positive”. The mutagenic call (Test System: MOUSE LYMPHOMA, Strain/Indicator: L5178Y (TK+/TK-), Metabolic Activation: NONE, Method: SUSPENSION/PLATE) was “inactive; negative. reevaluation of results: inconclusive” and the mutagenic call (Test System: MOUSE LYMPHOMA, Strain/Indicator: L5178Y (TK+/TK-), Metabolic Activation: RAT, LIVER, S-9, AROCLOR 1254, Method: SUSPENSION/PLATE) was “inactive; negative. reevaluation of results: negative”.

With O=[N+]([O-])c1ccccc1CBr the mutagenic call [1] was “inactive; negative”, the mutagenic call [5] was “inactive; negative” and the mutagenic call [4] was “inactive; negative”.

Cc1c(/C=N/OCc2ccc(Cl)cc2Cl)c2cc([N+](=O)[O-])ccc2n1Cc1ccc(Cl)cc1 was tested, and the mutagenic call [6] was “inactive; negative”, the mutagenic call (Test System: AMES SALMONELLA TYPHIMURIUM, Strain/Indicator: TA98, Metabolic Activation: RAT, LIVER, S-9, PHENOBARBITAL AND BETA-NAPHTHOFLAVONE, Method: STANDARD PLATE) was “inactive; negative” and the mutagenic call [2] was “inactive; negative”. The mutagenic call (Test System: AMES SALMONELLA TYPHIMURIUM, Strain/Indicator: TA100, Metabolic Activation: RAT, LIVER, S-9, PHENOBARBITAL AND BETA-NAPHTHOFLAVONE, Method: STANDARD PLATE) was “inactive; negative”.

C1=CC23CCCC2(C=C1)O3 (stereo not given) was tested, and the mutagenic call [6] was “inactive; negative”, the mutagenic call [2] was “active; positive” and the mutagenic call (Test System: AMES SALMONELLA TYPHIMURIUM, Strain/Indicator: TM677/8-AZAGUANINE, Metabolic Activation: NONE, Method: STANDARD PLATE) was “active; positive”.
